Test: Percutaneous absorption test of genistein-loaded amphiphilic polymer solution, Franz diffusion cell
Format: in vitro ADME, porcine
Method: The percutaneous absorption of genistein of the amphiphilic polymer solution in which genistein was loaded and which was prepared as above was evaluated using porcine skin (2×2 cm, thickness: 1000 μm) and a Franz diffusion cell (FIG. 2). A phosphate buffered saline (PBS) solution containing 30 wt % of dipropylene glycol (DPG) was used as an aqueous solution (acceptor solution) to maintain a sink condition with respect to genistein. 0.2 g of the amphiphilic polymer solution on which genistein was loaded was loaded in a Franz diffusion cell on which the porcine skin was mounted, and the test was performed at 32° C. similar to a skin temperature for 24 hours. Skin tissue into which genistein was absorbed was pulverized and extracted to analyze the content of genistein absorbed into the skin tissue and the content of genistein absorbed into the acceptor solution through HPLC, and the results are shown in Table 3.

“polycaprolactone (B)-polyethylene glycol (A)-polycaprolactone (B) copolymer [Comparative Example 1]” showed a Skin penetration amount of 0.15 μg/cm^2 and a Skin penetration ratio of 0.09%.
